Data reported in patent publication US20100221315A1, “VESICULAR FORMULATIONS CONTAINING ORGANIC ACID PRODRUGS, PROCESS FOR THEIR PREPARATION” (UNIVERSIDADE DE LISBOA, priority 2006, published 2010).
In brackets after ≈: the same amount, converted by molar mass. Like-named read-outs stand apart in the source and are kept apart here.

Tests used:
[1] = tested on: Mycobacterium tuberculosis H37Ra; assay: Determination of the Minimum Inhibitory Concentration (MIC) by successive dilutions; format: cell-based; settings: for MIC: broth, pH 5.5, about 21 days at 37° C.; for fold lower MIC values than those for PZA and POA: in vitro, pH 5.5
Method: Mycobacterium tuberculosis H37Ra was used as the reference strain. The esters C12, C14 and C16, pyrazinamide (PZA) and pyrazinoic acid (POA) were prepared in stock solutions of dimethyl sulfoxide (DMSO) at a concentration of 8 mg/ml. The Minimum Inhibitory Concentration was determined by the method of successive dilutions. The culture medium Myco (nutrient Broth-Difco, 10 g/L; Middlebrook 7H9-Difco, 10 g/L, 0,05% glucose and 0.01% of Tween 80) supplemented with OADC (Difco) was used and the pH was adjusted to 5.5.
To each test tube of each stage of the successive dilutions of the test compound, a sufficient volume of bacterial inoculum was added so as to provide a final concentration of 10^4 CFU/ml (CFU=Colony Forming Units). The tubes were incubated for about 21 days at 37° C. The onset of turbidity in the control tube (free of drugs) was checked for on a regular basis. Once turbidity appeared in the control test tube, the results were recorded where the MIC value was defined as the lowest concentration of drug able to inhibit the growth of mycobacteria (note there was a total absence of turbidity in the first test tube of the successive dilution sequence). These tests were performed in triplicate for each test compound. As expected, the MIC for PZA was 100 μg/ml.

[2] = Incorporation efficiency (EE) in liposomes prepared by hydration of a lipid and drugs film; format: physicochemical
Method: Different lipids (20 μmol) and the prodrug (2 μmol) were weighed out, transferred to a round-bottom flask, dissolved in chloroform and the organic solvent evaporated using a rotating evaporator to form a lipid film. This film was then dried in a vacuum bomb for the removal of chloroform residues and 1 ml of isotonic phosphate pH 7.4 buffer (PBS) was added at a temperature at least 10° C. higher than the phase transition temperature (TC) of the lipids used. The mixture was stirred for an additional five minutes to complete hydration of the lipid film and, after a few minutes at rest, it was stirred again for a further five minutes.
In order to determine the incorporation efficiency (EE), aliquots of the liposomal suspension after hydration and of the liposomal suspension obtained after centrifugation, supernatant removal and re-suspension of the sediment in its original volume (before being centrifuged) were collected. The EEs were calculated as the ratio between the prodrug concentration in the re-suspended liposome suspension and the prodrug concentration in the initial liposome suspension. Tables 2 to 6 show the EE values obtained for several formulations of different prodrugs.
All the prepared suspensions were checked using an optical phase contrast microscope set at 400× magnification.

in vitro [3] = format: in vitro ADME; settings: rat, tissue homogenate
Method: For each of the compounds in free form, 50 μl of rat liver homogenate, 1400 μl of PBS and 50 μl of compound stock solution were added (3.6×10^−3 M) in a test tube. The tubes were incubated at 37° C. under agitation, and aliquots of 150 μl were removed every minute, diluted with 600 μl of acetonitrile (ACN), and then centrifuged. The supernatant was removed and placed into the vials of an autosampler and analysed by HPLC.
To each liposomal suspension in a test tube, 50 μl of homogenate was added and diluted with PBS to a final volume of 1500 μl. The final drug concentration was 2×10^−3 M. The test tubes were incubated at 37° C. under agitation and sample collection and analysis were carried out by the same procedure used for determining the stability of liposomal drugs in plasma.

[4] = Incorporation efficiency (EE) in liposomes prepared by hydration of a lipid and prodrugs lyophilisate; format: physicochemical; settings: hydration of lipids and prodrugs lyophilisate
Method: Solutions were prepared containing 20 μmol of lipids and 2 μmol of prodrug in 10 ml of tert-butanol and were filtered by sterile filtration. These solutions were then frozen in liquid nitrogen and lyophilised for 24 hours.
After lyophilisation, the solutions were hydrated by the addition of 1 ml of PBS at a temperature of at least 10° C. higher than that of the phase transition temperature (TC) of the lipids, using an ultrasound water bath for two minutes. The incorporation efficiencies (EE) were calculated as described above for the liposome preparation carried out by hydration of a lipid film and are shown in Table 7.
All the suspensions produced were checked using an optical microscope set at 400× magnification.

in vitro [5] = format: in vitro ADME; settings: human, plasma
Method: 750 μl of plasma, 700 μl of PBS and 50 μl of stock solution of the compound (3.6×10^−3M) were added to each one of the test compounds in the free form in a test tube. The tube was incubated at 37° C. under agitation, and 150 μl aliquots were removed every five minutes, diluted with 600 μl of acetonitrile (ACN), and then centrifuged. The supernatant was removed and injected into an HPLC system. The area values obtained for each chromatogram were used to determine the half-life of each prodrug.
To each liposomal suspension in a test tube, 750 μl of plasma was added and diluted with PBS to a final volume of 3000 μl. The final drug concentration in each tube was 2×10^−3 M. The test tubes were then incubated at 37° C. with agitation and 150 μl aliquots were then removed at set time intervals, diluted with 600 μl of acetonitrile (ACN), and then centrifuged. For the remainder of the process, the same procedure was followed as described above for the free form case.

M. tuberculosis H37Ra = assay: Antimycobacterial activity of free and encapsulated compounds in macrophage infected with Mycobacterium tuberculosis; format: cell-based; settings: infected J774.A1 macrophage
Method: In evaluating the antimycobacterial activity, a conventional method (Anes et al., Nat Cell Biol, 2003) was employed using a cell culture of […] (cell line J774.A1).
Briefly, the macrophage was plated in a DMEM medium having a high glucose concentration and supplemented with 10% Foetal Bovine Serum, in 24 well tissue culture plates at 37° C. in a 5% carbon dioxide atmosphere. As soon as about 80% confluence was obtained, the cells were infected with M. tuberculosis H37Ra at a rate such that an inoculum concentration of 10^6 mycobacteria/ml per well was obtained.
After 3 hours of bacterial uptake, 1 to 5 bacillus per infected cell and a total of about 10E4-5 bacteria/ml were expected per well. Washing of the infected cultures with pH 7 buffer PBS was then carried out three times in order to eliminate all bacteria non internalised by the macrophage. Fresh DMEM medium was added with and without the test compound.
The incubation period was 7 days using fresh medium every 3 days. The compounds were added after 3 hours of internalization and remained in contact with the infected cells until fresh medium DMEM was added.
After 3 hours, 1 day, 3 days, 5 days and 7 days from the beginning of the infection, intracellular bacteria were recovered for lyses of the infected macrophage with a 1% IGEPAL solution (Sigma) in water. At this concentration, macrophage are lysed with no effect on the viability of the mycobacteria.
After successive dilutions of the lysate with water, the surviving bacteria were cultured in Middlebrook 7H10 medium supplemented with OADC (Difco). After about 2 weeks of incubation at 37° C. the Unity Forming Colonies (UFCs) were counted. Each test was carried out in triplicate in independent experiments.

[6] = Mycobacterium tuberculosis, H37RA, 504 h, pH 5.5, M. tuberculosis H37Ra, read-out: MIC
[7] = lipid formulation DMPC:DMPG (9:1)
[8] = pH 7.4, Half-life (min) Free form
[9] = pH 7.4, Half-life (min) Vesicular form (DMPC)

Structure (SMILES) | MIC [1, 6] [µg/mL] | EE (%) incorporation efficiency ([2]; lipid formulation DMPC) [%] | EE (%) incorporation efficiency ([2]; lipid formulation DPPC) [%] | half-life (in vitro [3]; [8]) [min] | half-life (in vitro [3]; [9]) [min] | EE (%) incorporation efficiency ([4]; lipid formulation DMPC) [%] | half-life (in vitro [5]; [8]) [min] | half-life (in vitro [5]; [9]) [min] | intracellular bacterial growth after 7 days of infection (M. tuberculosis H37Ra) | further results
CCCCCCCCCCCCOC(=O)c1cnccn1 [Compound C12, dodecyl pyrazinoate] | 20 to 40 (≈ 68.4 to 137 µM) | 94.7 | 93.1 | 2 | 54 | 95.6 | 15 | 78 | latency was observed | fold lower MIC values than those for PZA and POA [1]: 10 fold; EE (%) incorporation efficiency ([2]; lipid formulation DMPC:DMPG (7:3)): 82.7%; EE (%) incorporation efficiency [2, 7]: 87.0%; EE (%) incorporation efficiency ([2]; lipid formulation DPPC:DPPG (7:3)): 90.2%; EE (%) incorporation efficiency ([2]; lipid formulation DPPC:DPPG (9:1)): 87.2%; difference in bactericidal effect between DPPC and DMPC formulations (M. tuberculosis H37Ra; liposomal forms): no such significant differences; increase of bactericidal effect by encapsulation in liposomes relatively to free form (M. tuberculosis H37Ra; FIG. 1B): about 50%; bactericidal effect, comparison of compounds (M. tuberculosis H37Ra; free or vesicular form, FIG. 2A, 2B): greatest bactericidal effect
CCCCCCCCCCCCCCCCNC(=O)c1cnccn1 [Compound A16, hexadecyl pyrazinamide] | – | 97.0 | – | – | – | – | – | – | – | EE (%) incorporation efficiency ([2]; lipid formulation DMPG:DMPG 9:1): 98.4%; EE (%) incorporation efficiency ([2]; lipid formulation DPPM): 98.1%
NC(=O)c1cnccn1 [PZA, pyrazinamide, reference compound] | 100 (≈ 812 µM) | – | – | – | – | – | – | – | bacteria recovered their ability of intracellular growth | MIC ([1]; M. tuberculosis H37Ra): 100 to 200 µg/mL
CCCCCCCCCCOC(=O)c1ccccc1 [BD, decyl benzoate] | – | 94.1 | 93.4 | – | – | – | – | – | – | –
CCCCCCCCCCCCCCNC(=O)c1cnccn1 [Compound A14, N-tetradecyl pyrazinamide] | – | 95.2 | 96.4 | – | – | – | – | – | – | EE (%) incorporation efficiency [2, 7]: 98.6%
CCCCCCCCCCCCCCCCOC(=O)c1cnccn1 [Compound C16, hexadecyl pyrazinoate] | 20 to 40 (≈ 57.4 to 115 µM) | – | – | 21 | 770 | 97.3 | 68 | 214 | – | –
CCCCCCCCCCCCCCOC(=O)c1cnccn1 [Compound C14, tetradecyl pyrazinoate] | 10 to 20 (≈ 31.2 to 62.4 µM) | – | – | 4 | 169 | 98.2 | 19 | 158 | – | fold lower MIC values than those for PZA and POA [1]: 10 fold; EE (%) incorporation efficiency ([4]; lipid formulation DPPC): 97.4%
O=C(O)c1cnccn1 [POA, pyrazinoic acid, reference compound] | 100 to 200 (≈ 806 to 1610 µM) | – | – | – | – | – | – | – | bacteria recovered their ability of intracellular growth | –
CCCCCCCCOC(=O)C=Cc1ccccc1 [CO, octyl cinnamate] | – | 92.2 | 94.5 | – | – | – | – | – | – | –
